Results on eight molecules are retold here after patent US20220135622A1, “ANTIBACTERIAL PEPTIDES AND METHODS OF USE” (priority 2019, published 2022).

For experiment [1], the system named is E. coli imp4213. Put plainly: MIC assay, E. coli imp4213. It counts as cell-based, Escherichia coli. The following applies: Table 7. How it is done:
(§1) Bacterial growth conditions. LB or Mueller Hinton II cation-adjusted broth (MHB II, BBL 212322) was prepared according to manufacturer's instructions and supplemented with arabinose at 0.02% for overnight growth or at indicated concentrations in the description of the figures. Bacterial cultures were grown at 37° C. When appropriate, media was supplemented with kanamycin (50 μg/mL), carbenicillin (50 μg/mL), chloramphenicol (12.5 or 25 μg/mL), hygromycin (200 μg/mL), and/or gentamicin (10 μg/mL).
(§2) Peptide sensitivity and MIC assays. Lyophilized peptides (Smartox Biotechnology, CPC Scientific. ABclonal) were solubilized to 10 mM in Tris buffer, pH 8, prior to making a 2-fold dilution series in MHBII cation adjusted broth with highest final assay concentration of 400-800 μM. Bacteria were grown to log phase and added to final OD600˜0.001. The final EDTA concentration was 0.5 mM for E. coli strains and 0.125 mM for USA300. The final volume of 10 μL/well in a 384 well black, clear bottom plate (Corning) was spun <1 min at <250×g and then incubated at 37° C. After 4 h, an equal volume (10 μL) of BacTiter-Glo™ (Promega) was added to each well and luminescence was read after 5 min on an EnVision plate reader (PerkinElmer). To measure the minimal inhibitory concentrations (MICs), bacteria from fresh overnight plates or log phase cultures were diluted with or without EDTA and peptides as described above to final OD600˜0.0002. Plates were incubated at 37° C. for 20 h before measuring OD600 with an EnVision plate reader.

In experiment [2] the test system is A. baumannii. The experiment is classed as cell-based, Acinetobacter baumannii. The following applies: Table 8. A digest of the protocol:
(§3)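 Dilute peptide 2-fold in cation-adjusted MHB II to a top final concentration of 400-800 μM. Add bacteria to final OD600 ~0.0002 along with EDTA (0.5 mM E. coli, 0.125 mM USA300). Incubate 20 h at 37° C, then measure OD600.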

In experiment [3] the test system is E. coli ΔwaaD + vect. Put plainly: MIC assay, E. coli ΔwaaD + vect. The following applies: Table 7. The experiment is classed as cell-based, Escherichia coli. How it is done:
as §1, §2

The test system of experiment [4] is S. aureus USA300. The experiment is described as follows: MIC assay, S. aureus USA300. The experiment is classed as cell-based, Staphylococcus aureus. The following applies: Table 7. How it is done: as §1, §2
Experiment [5] deals with E. coli BW25113. It counts as cell-based, Escherichia coli. The method, boiled down: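 Growth inhibition: log-phase cells (OD600 ~0.001), peptides in 2-fold series up to 400–800 μM in MHB II, EDTA 0.5 mM (E. coli) or 0.125 mM (USA300), 4 h at 37 °C, ATP luminescence readout. MICs: inoculum at OD600 ~0.0002, with or without EDTA, 20 h at 37 °C, OD600 endpoint.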
The test system of experiment [6] is K. pneumoniae. The experiment is classed as cell-based, Klebsiella pneumoniae. The following applies: Table 8. A digest of the protocol: as §3
The test system of experiment [7] is E. coli ΔwaaD MCR-1. The experiment is described as follows: MIC assay, E. coli ΔwaaD MCR-1. The experiment is classed as cell-based, Escherichia coli. The following applies: Table 7. How it is done: as §1, §2
In experiment [8] the test system is P. aeruginosa. It counts as cell-based, Pseudomonas aeruginosa. The following applies: Table 8. The method, boiled down: as §3

Values after ≈ are worked out from the molar mass of the structure shown. Like-named read-outs stand apart in the source and are kept apart here. Square brackets hold non-standard residues; d marks the D form. Peptide text beside a SMILES is read from it. aThr = C[C@H](O)[C@H](N)C(=O)O; NMeM = CN[C@@H](CCSC)C(=O)O; NMeA = CN[C@@H](C)C(=O)O

As for Ac-YPMTARRFLAKWGLLR-NH2 [compound 57], the “MIC E. coli imp4213” value in experiment [1] was 12.5 µM. In addition, the “MIC A. baumannii” value in experiment [2] stood at 100 µM. For the same molecule, the “MIC E. coli ΔwaaD + vect.” value in experiment [3] turned out to be 100 µM. Further, in experiment [4], the “MIC S. aureus USA300” value was over 400 µM. In experiment [5] (Table 8), the “MIC E. coli BW25113” value amounted to 200 µM. Further, the “MIC K. pneumoniae” value in experiment [6] was 400 µM. In addition, in experiment [7], the “MIC E coli ΔwaaD − MCR1” value was 100/700. Besides, the “MIC R. aeruginosa” value in experiment [8] was determined as 200 µM.

Consider Ac-YPMTARRFLEKWGL-NH2 [compound 44], for which the “MIC E. coli imp4213” value in experiment [1] came out at 100 µM. Also, the “MIC A. baumannii” value in experiment [2] is over 800 µM. Also, the “MIC E. coli ΔwaaD + vect.” value in experiment [3] worked out at 200 µM. The “MIC S. aureus USA300” value in experiment [4] is over 800 µM. Also, the “MIC E. coli BW25113” value in experiment [5] (Table 7, no EDTA) is over 400 µM. Also, in experiment [6], the “MIC K. pneumoniae” value is over 800 µM. Besides, in experiment [7], the “MIC E coli ΔwaaD − MCR1” value is over 800 µM. For the same molecule, the “MIC R. aeruginosa” value in experiment [8] turned out to be 800 µM.

Take `CSCC[C@H](NC(=O)[C@@H]1CCCN1C(=O)[C@H](Cc1ccc(O)cc1)NC(C)=O)C(=O)N[C@H](C(=O)N[C@@H](C)C(=O)N[C@@H](CCCNC(=N)N)C(=O)N[C@@H](CCCNC(=N)N)C(=O)N[C@@H](Cc1ccccc1)C(=O)N[C@@H](CC(C)C)C(=O)N[C@@H](CCC(=O)O)C(=O)N[C@@H](CCCCN)C(=O)N[C@@H](Cc1c[nH]c2ccccc12)C(=O)NCC(=O)N[C@@H](CC(C)C)C(=O)N[C@@H](CC(C)C)C(=O)N[C@@H](CCCNC(=N)N)C(N)=O)[C@H](C)O` [compound 48] (Ac-YPM[aThr]ARRFLEKWGLLR-NH2): the “MIC E. coli imp4213” value in experiment [1] is 17.5 µM (≈ 36.4 µg/mL). Besides, the “MIC A. baumannii” value in experiment [2] came out at 200 µM (≈ 416 µg/mL). Further, the “MIC E. coli ΔwaaD + vect.” value in experiment [3] was 100 µM. Further, the “MIC S. aureus USA300” value in experiment [4] is over 400 µM. In addition, in experiment [5] (Table 8), the “MIC E. coli BW25113” value was 400 µM (≈ 831 µg/mL). For the same molecule, the “MIC K. pneumoniae” value in experiment [6] came to 400 µM (≈ 831 µg/mL). Moreover, the “MIC E coli ΔwaaD − MCR1” value in experiment [7] came to 400 µM (≈ 831 µg/mL). Besides, in experiment [8], the “MIC R. aeruginosa” value was 400 µM (≈ 831 µg/mL).

With Ac-YPMNARRFLEKWGLLR-NH2 [compound 50], the “MIC E. coli imp4213” value in experiment [1] was 25 µM. Also, in experiment [2], the “MIC A. baumannii” value turned out to be 400 µM. Further, the “MIC E. coli ΔwaaD + vect.” value in experiment [3] came to 200 µM. Further, in experiment [4], the “MIC S. aureus USA300” value is over 400 µM. In addition, the “MIC E. coli BW25113” value in experiment [5] (Table 8) was determined as 400 µM. Moreover, the “MIC K. pneumoniae” value in experiment [6] worked out at 800 µM. In addition, the “MIC E coli ΔwaaD − MCR1” value in experiment [7] was 800/400. The “MIC R. aeruginosa” value in experiment [8] came out at 800 µM.

Take Ac-YPMTFRRFLEKWGLLR-NH2 [compound 59]: the “MIC E. coli imp4213” value in experiment [1] was found to be 12.5 µM. In experiment [2], the “MIC A. baumannii” value stood at 50 µM. The “MIC E. coli ΔwaaD + vect.” value in experiment [3] is 25 µM. The “MIC S. aureus USA300” value in experiment [4] is over 400 µM. Also, the “MIC E. coli BW25113” value in experiment [5] (Table 8) is 400 µM. Also, the “MIC K. pneumoniae” value in experiment [6] worked out at 800 µM. For the same molecule, the “MIC E coli ΔwaaD − MCR1” value in experiment [7] was determined as 50 µM. Moreover, the “MIC R. aeruginosa” value in experiment [8] is over 800 µM.

With `CSCC[C@@H](C(=O)N[C@H](C(=O)N(C)[C@@H](C)C(=O)N[C@@H](CCCNC(=N)N)C(=O)N[C@@H](CCCNC(=N)N)C(=O)N[C@@H](Cc1ccccc1)C(=O)N[C@@H](CC(C)C)C(=O)N[C@@H](CCC(=O)O)C(=O)N[C@@H](CCCCN)C(=O)N[C@@H](Cc1c[nH]c2ccccc12)C(=O)NCC(=O)N[C@@H](CC(C)C)C(=O)N[C@@H](CC(C)C)C(=O)N[C@@H](CCCNC(=N)N)C(N)=O)[C@@H](C)O)N(C)C(=O)[C@@H]1CCCN1C(=O)[C@H](Cc1ccc(O)cc1)NC(C)=O` [compound 65] (Ac-YP[NMeM]T[NMeA]RRFLEKWGLLR-NH2), the “MIC E. coli imp4213” value in experiment [1] was determined as 12.5 µM (≈ 26.3 µg/mL). In experiment [2], the “MIC A. baumannii” value is 50 µM (≈ 105 µg/mL). In addition, in experiment [3], the “MIC E. coli ΔwaaD + vect.” value was under 6.25 µM. Further, the “MIC S. aureus USA300” value in experiment [4] was 800 µM (≈ 1690 µg/mL). Besides, the “MIC E. coli BW25113” value in experiment [5] (Table 8) was 200 µM (≈ 421 µg/mL). For the same molecule, in experiment [6], the “MIC K. pneumoniae” value was 200 µM (≈ 421 µg/mL). Further, in experiment [7], the “MIC E coli ΔwaaD − MCR1” value was 100 µM (≈ 211 µg/mL). For the same molecule, the “MIC R. aeruginosa” value in experiment [8] was determined as 800 µM (≈ 1690 µg/mL).

As to Ac-YPMTARRYLEKWGLLR-NH2 [compound 56], in experiment [1], the “MIC E. coli imp4213” value is 25 µM. In experiment [2], the “MIC A. baumannii” value is 400 µM. In experiment [3], the “MIC E. coli ΔwaaD + vect.” value is 400 µM. Further, the “MIC S. aureus USA300” value in experiment [4] was over 400 µM. For the same molecule, the “MIC E. coli BW25113” value in experiment [5] (Table 7, no EDTA) is over 400 µM. For the same molecule, in experiment [6], the “MIC K. pneumoniae” value is 800 µM. Moreover, in experiment [7], the “MIC E coli ΔwaaD − MCR1” value was 800 µM. Further, the “MIC R. aeruginosa” value in experiment [8] amounted to 800 µM.

Regarding Ac-YPMTAQRFLEKWGLLR-NH2 [compound 54], in experiment [1], the “MIC E. coli imp4213” value came out at 100 µM. The “MIC A. baumannii” value in experiment [2] is over 800 µM. For the same molecule, in experiment [3], the “MIC E. coli ΔwaaD + vect.” value was found to be 100 µM. Besides, in experiment [4], the “MIC S. aureus USA300” value is over 400 µM. Moreover, in experiment [5] (Table 7, no EDTA), the “MIC E. coli BW25113” value is over 400 µM. For the same molecule, the “MIC K. pneumoniae” value in experiment [6] was over 800 µM. Besides, the “MIC E coli ΔwaaD − MCR1” value in experiment [7] was over 800 µM. For the same molecule, the “MIC R. aeruginosa” value in experiment [8] was over 800 µM.
